Measurements from PubChem BioAssay (NCI).
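Values below derive from 48-hour exposures of cells grown in 96-well plates, with endpoints linearly interpolated between the two concentrations bracketing the appropriate inhibition level. GI50: concentration for 50% inhibition of growth. The concentration for full growth arrest is given as TGI.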

Tests used:
Assay in all cases: inhibition of tumour cell growth, NCI panel, 48 h
[1] = system: 786-0 renal
[2] = system: A549 NSCLC
[3] = system: ACHN renal
[4] = system: BT-549 breast
[5] = system: CAKI-1 renal
[6] = system: CCRF-CEM leukemia
[7] = system: COLO 205 colon
[8] = system: DU-145 prostate
[9] = system: EKVX NSCLC
[10] = system: HCC-2998 colon
[11] = system: HCT-15 colon
[12] = system: HOP-62 NSCLC
[13] = system: HOP-92 NSCLC
[14] = system: HT29 colon
[15] = system: IGROV1 ovarian
[16] = system: K-562 leukemia
[17] = system: KM12 colon
[18] = system: LOX IMVI melanoma
[19] = system: M14 melanoma
[20] = system: MALME-3M melanoma
[21] = system: MCF7 breast
[22] = system: MDA-MB-231 breast
[23] = system: MDA-MB-435
[24] = system: MOLT-4 leukemia
[25] = system: NCI-H226 lung
[26] = system: NCI-H23 lung
[27] = system: NCI-H460 lung
[28] = system: NCI-H522 lung
[29] = system: NCI/ADR-RES ovarian
[30] = system: OVCAR-3 ovarian
[31] = system: OVCAR-4 ovarian
[32] = system: OVCAR-5 ovarian
[33] = system: OVCAR-8 ovarian
[34] = system: PC-3 prostate
[35] = system: RPMI-8226 leukemia
[36] = system: RXF 393 renal
[37] = system: SF-268 CNS
[38] = system: SF-295 CNS
[39] = system: SF-539 CNS
[40] = system: SK-MEL-2 melanoma
[41] = system: SK-MEL-28 melanoma
[42] = system: SK-OV-3 ovarian
[43] = system: SN12C renal
[44] = system: SNB-19 CNS
[45] = system: SNB-75 CNS
[46] = system: SR leukemia
[47] = system: SW-620 colon
[48] = system: T-47D breast
[49] = system: TK-10 renal
[50] = system: U251 CNS
[51] = system: UACC-257 melanoma
[52] = system: UACC-62 melanoma
[53] = system: UO-31 renal

Question: With `CCCCCCCCCN=C(N)c1ccc(N2CCN(c3ccc(C(N)=NCCCCCCCCC)cc3)CC2)cc1` as the compound, how does the GI50 [1] read?
Answer: 3.4 µM

Question: And the TGI [1]?
Answer: > 50 µM

Question: And the GI50 [2]?
Answer: 1.57 µM

Question: What about the TGI [2] of the same compound?
Answer: 10.5 µM

Question: What about the GI50 [3] of the same compound?
Answer: 2.19 µM

Question: And the TGI [3]?
Answer: 12.7 µM

Question: What about the GI50 [4] of the same compound?
Answer: 1.13 µM

Question: What about the TGI [4] of the same compound?
Answer: 2.71 µM

Question: What about the GI50 [5] of the same compound?
Answer: 1.86 µM

Question: And the TGI [5]?
Answer: 8.42 µM

Question: What about the GI50 [6] of the same compound?
Answer: 1.77 µM

Question: What about the TGI [6] of the same compound?
Answer: 8.34 µM

Question: What about the GI50 [7] of the same compound?
Answer: 1.78 µM

Question: And the TGI [7]?
Answer: 7.94 µM

Question: And the GI50 [8]?
Answer: 2.35 µM

Question: What about the TGI [8] of the same compound?
Answer: 8.06 µM

Question: What about the GI50 [9] of the same compound?
Answer: 1.95 µM

Question: And the TGI [9]?
Answer: 7.72 µM

Question: What about the GI50 [10] of the same compound?
Answer: 1.82 µM

Question: What about the TGI [10] of the same compound?
Answer: 6.14 µM

Question: What about the GI50 [11] of the same compound?
Answer: 2.05 µM

Question: And the TGI [11]?
Answer: 13.5 µM

Question: What about the GI50 [12] of the same compound?
Answer: 2.72 µM

Question: And the TGI [12]?
Answer: > 50 µM

Question: And the GI50 [13]?
Answer: 4.1 µM

Question: What about the TGI [13] of the same compound?
Answer: > 50 µM

Question: And the GI50 [14]?
Answer: 1.3 µM

Question: What about the TGI [14] of the same compound?
Answer: 7.4 µM

Question: And the GI50 [15]?
Answer: 1.66 µM

Question: What about the TGI [15] of the same compound?
Answer: > 50 µM

Question: What about the GI50 [16] of the same compound?
Answer: 1.72 µM

Question: And the TGI [16]?
Answer: 17 µM

Question: What about the GI50 [17] of the same compound?
Answer: 1.7 µM

Question: What about the TGI [17] of the same compound?
Answer: 5.67 µM

Question: And the GI50 [18]?
Answer: 2.1 µM

Question: And the TGI [18]?
Answer: 10.7 µM

Question: What about the GI50 [19] of the same compound?
Answer: 3.09 µM

Question: And the TGI [19]?
Answer: > 50 µM

Question: What about the GI50 [20] of the same compound?
Answer: 1.37 µM

Question: And the TGI [20]?
Answer: 3.74 µM

Question: And the GI50 [21]?
Answer: 0.704 µM

Question: What about the TGI [21] of the same compound?
Answer: 1.54 µM

Question: What about the GI50 [22] of the same compound?
Answer: 1.41 µM

Question: What about the TGI [22] of the same compound?
Answer: 5.59 µM

Question: What about the GI50 [23] of the same compound?
Answer: 1.74 µM

Question: And the TGI [23]?
Answer: 5.35 µM

Question: And the GI50 [24]?
Answer: 1.58 µM

Question: What about the TGI [24] of the same compound?
Answer: > 50 µM

Question: And the GI50 [25]?
Answer: 3.77 µM

Question: And the TGI [25]?
Answer: > 50 µM

Question: What about the GI50 [26] of the same compound?
Answer: 1.67 µM

Question: What about the TGI [26] of the same compound?
Answer: 6.37 µM

Question: And the GI50 [27]?
Answer: 1.61 µM

Question: What about the TGI [27] of the same compound?
Answer: 5.13 µM

Question: What about the GI50 [28] of the same compound?
Answer: 2.36 µM

Question: What about the TGI [28] of the same compound?
Answer: 21.4 µM

Question: What about the GI50 [29] of the same compound?
Answer: 3.56 µM

Question: And the TGI [29]?
Answer: > 50 µM

Question: What about the GI50 [30] of the same compound?
Answer: 1.1 µM

Question: And the TGI [30]?
Answer: 3.83 µM

Question: What about the GI50 [31] of the same compound?
Answer: 3.86 µM

Question: And the TGI [31]?
Answer: > 50 µM

Question: And the GI50 [32]?
Answer: 3.13 µM

Question: What about the TGI [32] of the same compound?
Answer: 11 µM

Question: What about the GI50 [33] of the same compound?
Answer: 1.62 µM

Question: And the TGI [33]?
Answer: 5.95 µM

Question: And the GI50 [34]?
Answer: 1.74 µM

Question: And the TGI [34]?
Answer: 5.87 µM

Question: And the GI50 [35]?
Answer: 1.96 µM

Question: And the TGI [35]?
Answer: > 50 µM

Question: And the GI50 [36]?
Answer: 1.04 µM

Question: And the TGI [36]?
Answer: 3.01 µM

Question: What about the GI50 [37] of the same compound?
Answer: 1.22 µM

Question: What about the TGI [37] of the same compound?
Answer: 4.04 µM

Question: What about the GI50 [38] of the same compound?
Answer: 1.24 µM

Question: What about the TGI [38] of the same compound?
Answer: 2.57 µM

Question: And the GI50 [39]?
Answer: 2 µM

Question: What about the TGI [39] of the same compound?
Answer: 4.48 µM

Question: And the GI50 [40]?
Answer: 2.88 µM

Question: What about the TGI [40] of the same compound?
Answer: > 50 µM

Question: And the GI50 [41]?
Answer: 1.6 µM

Question: What about the TGI [41] of the same compound?
Answer: 4.27 µM

Question: And the GI50 [42]?
Answer: 2.65 µM

Question: What about the TGI [42] of the same compound?
Answer: 33.1 µM

Question: What about the GI50 [43] of the same compound?
Answer: 1.52 µM

Question: And the TGI [43]?
Answer: 7.85 µM

Question: What about the GI50 [44] of the same compound?
Answer: 2.29 µM

Question: And the TGI [44]?
Answer: 15.8 µM

Question: And the GI50 [45]?
Answer: 1.1 µM

Question: What about the TGI [45] of the same compound?
Answer: 4.75 µM

Question: What about the GI50 [46] of the same compound?
Answer: 2.75 µM

Question: And the TGI [46]?
Answer: > 50 µM

Question: What about the GI50 [47] of the same compound?
Answer: 1.52 µM

Question: What about the TGI [47] of the same compound?
Answer: 3.55 µM

Question: And the GI50 [48]?
Answer: 2.44 µM

Question: And the TGI [48]?
Answer: 11.8 µM

Question: And the GI50 [49]?
Answer: 4.3 µM

Question: What about the TGI [49] of the same compound?
Answer: 14.7 µM

Question: And the GI50 [50]?
Answer: 0.518 µM

Question: What about the TGI [50] of the same compound?
Answer: 1.41 µM

Question: What about the GI50 [51] of the same compound?
Answer: 1.2 µM

Question: What about the TGI [51] of the same compound?
Answer: 3.08 µM

Question: What about the GI50 [52] of the same compound?
Answer: 2.45 µM

Question: What about the TGI [52] of the same compound?
Answer: 22.1 µM

Question: And the GI50 [53]?
Answer: 3.5 µM

Question: What about the TGI [53] of the same compound?
Answer: > 50 µM
